Data as given in patent US10670605B2, “Cysteine reactive probes and uses thereof” (The Scripps Research Institute, priority 2015, dated 2020).
One block for each molecule: values may come before it.

Tests used:
Assay in all cases: Competitive isoTOP-ABPP in situ (fragment-treated cells)
Assay type in all cases: cell-based
[1] = target: T1, cysteines in MDA-MB-231 and Ramos cells (Homo sapiens, UniProt Q5T440)
T1 sequence (Q5T440 40-356): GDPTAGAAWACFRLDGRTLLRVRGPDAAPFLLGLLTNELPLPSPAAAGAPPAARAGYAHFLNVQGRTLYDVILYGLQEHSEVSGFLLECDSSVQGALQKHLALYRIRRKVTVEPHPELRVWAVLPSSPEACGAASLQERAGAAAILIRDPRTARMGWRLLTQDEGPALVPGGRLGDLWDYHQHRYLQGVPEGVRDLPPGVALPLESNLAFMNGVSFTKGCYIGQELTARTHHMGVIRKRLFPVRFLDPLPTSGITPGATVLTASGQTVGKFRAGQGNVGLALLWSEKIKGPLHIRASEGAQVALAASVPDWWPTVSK

[2] = target: cysteines in MDA-MB-231 and Ramos cells (Homo sapiens, UniProt P68366)
[3] = target: T2, cysteines in MDA-MB-231 and Ramos cells (Homo sapiens, UniProt P55265); details: 200 μM, insitu
T2 sequence (P55265 1-1226): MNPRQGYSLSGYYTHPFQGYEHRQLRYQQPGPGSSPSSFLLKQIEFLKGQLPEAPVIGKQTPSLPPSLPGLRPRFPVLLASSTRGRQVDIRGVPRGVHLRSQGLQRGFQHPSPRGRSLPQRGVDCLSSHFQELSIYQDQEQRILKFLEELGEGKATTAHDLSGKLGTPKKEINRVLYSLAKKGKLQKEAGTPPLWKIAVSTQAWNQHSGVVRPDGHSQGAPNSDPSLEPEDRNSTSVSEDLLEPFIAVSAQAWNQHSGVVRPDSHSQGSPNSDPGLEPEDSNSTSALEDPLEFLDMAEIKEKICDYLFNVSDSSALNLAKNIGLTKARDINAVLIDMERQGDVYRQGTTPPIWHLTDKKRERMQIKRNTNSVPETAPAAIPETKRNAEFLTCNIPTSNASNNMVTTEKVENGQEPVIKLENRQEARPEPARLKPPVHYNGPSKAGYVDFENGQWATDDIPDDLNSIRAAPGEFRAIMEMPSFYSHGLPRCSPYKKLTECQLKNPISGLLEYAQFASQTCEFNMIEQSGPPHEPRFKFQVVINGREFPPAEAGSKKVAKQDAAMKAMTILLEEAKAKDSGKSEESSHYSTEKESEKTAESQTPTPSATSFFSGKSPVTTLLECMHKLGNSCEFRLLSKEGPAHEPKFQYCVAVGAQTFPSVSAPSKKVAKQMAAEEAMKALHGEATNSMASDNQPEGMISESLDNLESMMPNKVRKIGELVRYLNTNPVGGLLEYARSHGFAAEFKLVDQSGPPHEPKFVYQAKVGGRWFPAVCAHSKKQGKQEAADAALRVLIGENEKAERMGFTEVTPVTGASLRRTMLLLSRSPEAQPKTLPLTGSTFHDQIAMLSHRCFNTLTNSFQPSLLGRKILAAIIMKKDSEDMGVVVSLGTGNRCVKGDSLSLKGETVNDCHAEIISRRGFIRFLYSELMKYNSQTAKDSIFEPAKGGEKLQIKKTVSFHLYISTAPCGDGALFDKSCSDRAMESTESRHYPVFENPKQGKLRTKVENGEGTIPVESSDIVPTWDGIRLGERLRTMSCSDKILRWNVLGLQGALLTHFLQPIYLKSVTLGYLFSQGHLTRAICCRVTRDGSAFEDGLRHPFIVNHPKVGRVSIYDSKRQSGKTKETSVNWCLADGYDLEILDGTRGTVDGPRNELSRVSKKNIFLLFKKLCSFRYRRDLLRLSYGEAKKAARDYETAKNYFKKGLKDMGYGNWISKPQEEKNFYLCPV

[4] = target: cysteines in MDA-MB-231 and Ramos cells (Homo sapiens, UniProt Q15149)
[5] = target: T3, cysteines in MDA-MB-231 and Ramos cells (Homo sapiens, UniProt Q9NPH0)
T3 sequence (Q9NPH0 33-428): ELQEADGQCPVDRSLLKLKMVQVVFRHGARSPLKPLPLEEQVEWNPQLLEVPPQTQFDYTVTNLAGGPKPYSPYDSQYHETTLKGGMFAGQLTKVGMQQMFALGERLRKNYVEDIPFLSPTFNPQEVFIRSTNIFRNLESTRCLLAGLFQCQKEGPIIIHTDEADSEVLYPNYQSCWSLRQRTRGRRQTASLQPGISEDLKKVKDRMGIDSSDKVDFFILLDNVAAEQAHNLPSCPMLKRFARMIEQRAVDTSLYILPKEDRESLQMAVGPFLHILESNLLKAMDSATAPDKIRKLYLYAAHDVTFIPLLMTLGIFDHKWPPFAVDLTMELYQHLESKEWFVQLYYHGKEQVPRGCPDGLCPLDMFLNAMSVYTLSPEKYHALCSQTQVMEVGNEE

[6] = target: T4, cysteines in MDA-MB-231 and Ramos cells (Homo sapiens, UniProt Q07065)
T4 sequence (Q07065 1-602): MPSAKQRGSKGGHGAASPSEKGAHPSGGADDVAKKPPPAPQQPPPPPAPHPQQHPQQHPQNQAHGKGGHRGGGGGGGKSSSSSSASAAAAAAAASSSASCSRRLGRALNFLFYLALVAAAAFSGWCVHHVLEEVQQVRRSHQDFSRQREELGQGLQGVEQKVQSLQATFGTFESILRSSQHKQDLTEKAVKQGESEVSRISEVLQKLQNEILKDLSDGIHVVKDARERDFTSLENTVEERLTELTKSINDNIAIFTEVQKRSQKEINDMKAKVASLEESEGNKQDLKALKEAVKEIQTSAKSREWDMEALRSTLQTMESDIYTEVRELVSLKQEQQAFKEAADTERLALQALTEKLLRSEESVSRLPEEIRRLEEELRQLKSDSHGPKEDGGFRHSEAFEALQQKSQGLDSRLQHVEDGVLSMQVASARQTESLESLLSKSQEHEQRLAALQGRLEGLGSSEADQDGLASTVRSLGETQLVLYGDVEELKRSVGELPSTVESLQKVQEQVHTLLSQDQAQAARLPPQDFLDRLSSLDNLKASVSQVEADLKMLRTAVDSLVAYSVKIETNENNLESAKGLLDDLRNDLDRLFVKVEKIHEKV

Chain of cysteines in MDA-MB-231 and Ramos cells (Homo sapiens, UniProt P68366) (P68366 whole entry): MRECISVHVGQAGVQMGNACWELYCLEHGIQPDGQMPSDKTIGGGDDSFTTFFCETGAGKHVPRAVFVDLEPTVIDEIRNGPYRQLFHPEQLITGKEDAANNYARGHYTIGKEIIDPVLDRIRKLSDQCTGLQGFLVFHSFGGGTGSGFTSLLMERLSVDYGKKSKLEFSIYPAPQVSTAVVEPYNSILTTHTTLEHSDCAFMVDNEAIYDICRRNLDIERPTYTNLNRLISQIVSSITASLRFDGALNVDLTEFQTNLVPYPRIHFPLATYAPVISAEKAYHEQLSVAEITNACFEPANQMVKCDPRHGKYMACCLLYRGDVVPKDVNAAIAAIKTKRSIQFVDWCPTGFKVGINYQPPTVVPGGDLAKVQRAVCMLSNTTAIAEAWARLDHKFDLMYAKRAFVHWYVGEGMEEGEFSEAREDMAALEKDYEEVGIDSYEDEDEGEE
Chain of cysteines in MDA-MB-231 and Ramos cells (Homo sapiens, UniProt Q15149) (Q15149 whole entry): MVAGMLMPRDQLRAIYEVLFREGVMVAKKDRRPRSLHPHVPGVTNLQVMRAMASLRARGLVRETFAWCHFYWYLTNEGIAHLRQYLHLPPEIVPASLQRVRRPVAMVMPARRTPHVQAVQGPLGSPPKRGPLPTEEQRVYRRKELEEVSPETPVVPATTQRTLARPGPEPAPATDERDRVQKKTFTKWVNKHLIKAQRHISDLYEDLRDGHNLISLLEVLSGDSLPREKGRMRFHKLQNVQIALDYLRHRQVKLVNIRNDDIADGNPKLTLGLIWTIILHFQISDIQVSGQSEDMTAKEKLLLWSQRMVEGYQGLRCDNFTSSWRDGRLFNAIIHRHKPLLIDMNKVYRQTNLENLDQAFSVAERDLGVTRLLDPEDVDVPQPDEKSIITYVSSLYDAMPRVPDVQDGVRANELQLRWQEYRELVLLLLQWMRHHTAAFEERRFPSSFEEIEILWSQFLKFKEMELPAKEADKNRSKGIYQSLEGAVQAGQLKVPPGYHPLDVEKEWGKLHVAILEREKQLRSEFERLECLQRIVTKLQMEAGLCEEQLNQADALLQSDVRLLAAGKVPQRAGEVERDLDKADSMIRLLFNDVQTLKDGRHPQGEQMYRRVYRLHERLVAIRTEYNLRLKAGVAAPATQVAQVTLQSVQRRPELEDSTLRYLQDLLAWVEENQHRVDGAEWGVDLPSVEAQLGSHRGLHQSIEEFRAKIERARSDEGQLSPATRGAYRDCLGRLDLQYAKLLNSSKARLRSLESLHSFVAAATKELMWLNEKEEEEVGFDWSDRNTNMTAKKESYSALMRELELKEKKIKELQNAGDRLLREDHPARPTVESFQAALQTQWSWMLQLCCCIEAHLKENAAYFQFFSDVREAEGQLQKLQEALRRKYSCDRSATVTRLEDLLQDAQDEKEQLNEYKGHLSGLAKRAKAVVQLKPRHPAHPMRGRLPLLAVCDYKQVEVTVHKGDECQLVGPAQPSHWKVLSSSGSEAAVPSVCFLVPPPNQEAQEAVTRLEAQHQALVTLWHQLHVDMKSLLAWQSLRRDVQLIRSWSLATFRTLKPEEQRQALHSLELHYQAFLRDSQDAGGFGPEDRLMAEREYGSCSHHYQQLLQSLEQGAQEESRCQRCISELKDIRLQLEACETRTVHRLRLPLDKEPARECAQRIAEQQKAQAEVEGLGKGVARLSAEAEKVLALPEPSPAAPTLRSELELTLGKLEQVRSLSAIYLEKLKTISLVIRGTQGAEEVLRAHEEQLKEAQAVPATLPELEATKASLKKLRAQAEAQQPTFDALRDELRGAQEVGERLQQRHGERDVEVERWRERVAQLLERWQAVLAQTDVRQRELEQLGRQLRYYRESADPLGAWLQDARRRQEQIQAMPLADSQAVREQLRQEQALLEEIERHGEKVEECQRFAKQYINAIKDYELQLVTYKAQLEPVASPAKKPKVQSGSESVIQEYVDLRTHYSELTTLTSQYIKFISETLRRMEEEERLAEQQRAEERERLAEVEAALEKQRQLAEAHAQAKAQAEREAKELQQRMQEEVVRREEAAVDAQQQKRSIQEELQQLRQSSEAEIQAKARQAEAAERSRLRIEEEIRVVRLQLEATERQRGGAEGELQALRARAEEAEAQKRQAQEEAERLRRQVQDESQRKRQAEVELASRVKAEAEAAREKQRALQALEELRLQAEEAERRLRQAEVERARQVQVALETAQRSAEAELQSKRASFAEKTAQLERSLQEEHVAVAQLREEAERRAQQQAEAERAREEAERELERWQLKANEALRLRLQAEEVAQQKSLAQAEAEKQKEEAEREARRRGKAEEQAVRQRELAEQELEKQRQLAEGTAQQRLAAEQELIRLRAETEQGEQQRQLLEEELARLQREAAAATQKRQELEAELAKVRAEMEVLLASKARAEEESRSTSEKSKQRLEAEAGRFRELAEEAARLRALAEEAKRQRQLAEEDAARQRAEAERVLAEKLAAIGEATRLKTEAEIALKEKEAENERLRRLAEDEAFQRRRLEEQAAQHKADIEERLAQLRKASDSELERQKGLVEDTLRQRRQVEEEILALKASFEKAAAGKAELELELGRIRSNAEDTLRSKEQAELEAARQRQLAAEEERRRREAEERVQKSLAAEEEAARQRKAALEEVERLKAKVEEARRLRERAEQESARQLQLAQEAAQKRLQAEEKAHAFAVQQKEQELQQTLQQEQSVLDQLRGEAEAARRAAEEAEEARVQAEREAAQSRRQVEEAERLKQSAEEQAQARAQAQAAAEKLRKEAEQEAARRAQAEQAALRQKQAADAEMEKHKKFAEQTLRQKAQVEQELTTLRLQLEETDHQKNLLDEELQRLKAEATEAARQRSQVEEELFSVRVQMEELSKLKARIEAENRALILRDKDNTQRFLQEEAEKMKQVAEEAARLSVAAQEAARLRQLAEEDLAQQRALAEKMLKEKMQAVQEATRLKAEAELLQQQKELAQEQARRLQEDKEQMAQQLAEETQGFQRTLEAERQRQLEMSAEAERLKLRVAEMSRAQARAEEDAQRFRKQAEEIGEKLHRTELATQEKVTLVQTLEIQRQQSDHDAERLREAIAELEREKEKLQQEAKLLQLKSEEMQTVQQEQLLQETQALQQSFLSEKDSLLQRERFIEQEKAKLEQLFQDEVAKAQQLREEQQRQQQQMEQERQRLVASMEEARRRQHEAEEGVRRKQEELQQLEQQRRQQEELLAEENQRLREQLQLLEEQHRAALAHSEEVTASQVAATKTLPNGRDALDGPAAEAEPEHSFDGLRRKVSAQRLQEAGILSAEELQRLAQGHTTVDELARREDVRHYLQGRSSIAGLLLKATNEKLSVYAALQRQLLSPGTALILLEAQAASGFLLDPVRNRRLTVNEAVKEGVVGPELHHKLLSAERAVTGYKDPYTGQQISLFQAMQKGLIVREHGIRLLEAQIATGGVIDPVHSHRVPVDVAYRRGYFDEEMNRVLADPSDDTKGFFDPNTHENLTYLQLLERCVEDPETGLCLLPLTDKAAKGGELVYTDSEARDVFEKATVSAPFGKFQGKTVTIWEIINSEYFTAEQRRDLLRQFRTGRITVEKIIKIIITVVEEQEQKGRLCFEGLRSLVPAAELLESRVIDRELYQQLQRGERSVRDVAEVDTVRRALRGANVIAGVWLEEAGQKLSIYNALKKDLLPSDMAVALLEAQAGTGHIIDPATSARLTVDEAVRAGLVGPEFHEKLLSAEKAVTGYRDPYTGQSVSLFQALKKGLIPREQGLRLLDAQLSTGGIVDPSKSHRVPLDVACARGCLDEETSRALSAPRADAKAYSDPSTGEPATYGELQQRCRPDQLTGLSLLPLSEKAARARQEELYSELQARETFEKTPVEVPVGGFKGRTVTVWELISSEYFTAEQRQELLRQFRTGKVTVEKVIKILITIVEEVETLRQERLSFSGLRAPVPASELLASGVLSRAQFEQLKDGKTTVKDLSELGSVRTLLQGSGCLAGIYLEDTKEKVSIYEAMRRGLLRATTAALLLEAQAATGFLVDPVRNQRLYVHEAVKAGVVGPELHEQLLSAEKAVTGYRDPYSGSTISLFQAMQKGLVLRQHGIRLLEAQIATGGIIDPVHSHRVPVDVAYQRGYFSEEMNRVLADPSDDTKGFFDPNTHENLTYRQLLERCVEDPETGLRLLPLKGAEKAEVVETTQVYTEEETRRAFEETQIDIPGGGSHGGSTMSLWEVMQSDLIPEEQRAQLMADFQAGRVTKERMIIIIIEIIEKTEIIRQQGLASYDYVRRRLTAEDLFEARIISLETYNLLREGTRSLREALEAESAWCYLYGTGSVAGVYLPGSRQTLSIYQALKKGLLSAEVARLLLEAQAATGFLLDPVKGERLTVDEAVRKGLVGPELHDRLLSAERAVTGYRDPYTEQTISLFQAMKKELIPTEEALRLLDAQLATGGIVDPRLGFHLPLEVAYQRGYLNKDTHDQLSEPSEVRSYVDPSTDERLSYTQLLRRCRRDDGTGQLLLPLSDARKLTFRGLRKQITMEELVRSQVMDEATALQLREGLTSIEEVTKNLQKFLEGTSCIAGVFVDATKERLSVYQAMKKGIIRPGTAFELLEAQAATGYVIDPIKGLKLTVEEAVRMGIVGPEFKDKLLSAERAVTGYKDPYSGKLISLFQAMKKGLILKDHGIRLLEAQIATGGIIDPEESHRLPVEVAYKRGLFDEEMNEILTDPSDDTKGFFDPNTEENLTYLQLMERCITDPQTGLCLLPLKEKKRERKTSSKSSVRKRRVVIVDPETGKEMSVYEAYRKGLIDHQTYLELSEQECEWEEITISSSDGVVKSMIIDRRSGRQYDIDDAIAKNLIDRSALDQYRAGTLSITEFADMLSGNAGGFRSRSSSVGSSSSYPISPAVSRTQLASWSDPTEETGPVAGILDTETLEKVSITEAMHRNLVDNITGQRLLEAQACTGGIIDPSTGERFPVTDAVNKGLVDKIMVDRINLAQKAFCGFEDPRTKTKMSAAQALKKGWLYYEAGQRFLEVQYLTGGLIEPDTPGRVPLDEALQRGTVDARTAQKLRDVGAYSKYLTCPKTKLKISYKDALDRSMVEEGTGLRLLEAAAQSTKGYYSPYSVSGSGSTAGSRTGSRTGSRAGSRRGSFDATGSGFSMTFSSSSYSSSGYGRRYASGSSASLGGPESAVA

SMILES: COc1ccc2c(c1)CCCN2C(=O)CCl [compound 2]
isoTOP-ABPP reactivity Q5T440_C170 IBA57 ([1]; 200 μM, insitu, 231): 14.0
isoTOP-ABPP reactivity P68366_C54 TUBA4A ([2]; 200 μM, insitu, 231): 9.7
isoTOP-ABPP reactivity P55265_C1224 ADAR [3]; 231: 9.1

SMILES: COc1ccc(C2CC(c3cccs3)=NN2C(=O)CCl)cc1 (stereo not shown) [compound 4]
isoTOP-ABPP reactivity Q15149_C4574 PLEC ([4]; 100 μM in situ 231): 4.2
isoTOP-ABPP reactivity Q9NPH0_C267 ACP6 ([5]; 100 μM in situ 231): 20.0
isoTOP-ABPP reactivity Q5T440_C170 IBA57 ([1]; 100 μM in situ 231): 1.5
isoTOP-ABPP reactivity P68366_C54 TUBA4A ([2]; 100 μM in situ 231): 0.8

SMILES: COc1cc2c(cc1OC)CN(C(=O)CCl)CC2 [compound 8]
isoTOP-ABPP reactivity Q9NPH0_C267 ACP6 ([5]; 200 μM, insitu, 231): 20.0
isoTOP-ABPP reactivity P68366_C54 TUBA4A ([2]; 200 μM, insitu, 231): 0.9

SMILES: O=C(CCl)N1CCC(Cc2ccccc2)CC1 [compound 9]
isoTOP-ABPP reactivity Q15149_C4574 PLEC ([4]; 200 μM, insitu, 231): 0.8
isoTOP-ABPP reactivity Q07065_C100 CKAP4 ([6]; 200 μM, insitu, 231): 15.4

SMILES: O=C(CCl)N1CCN(S(=O)(=O)c2ccccc2F)CC1 [compound 10]
isoTOP-ABPP ratio, cysteine Q15149_C4574 ([4]; 200 μM, insitu, 231): 2.2
isoTOP-ABPP ratio, cysteine Q9NPH0_C267 ([5]; 200 μM, insitu, 231): 13.4
isoTOP-ABPP ratio Q5T440_C170 ([1]; 200 μM, insitu, 231): 5.7
isoTOP-ABPP ratio P68366_C54 ([2]; 200 μM, insitu, 231): 7.9
isoTOP-ABPP ratio P68366_C54 ([2]; 200 μM, insitu, ramos): 2.8
isoTOP-ABPP ratio, cysteine P55265_C1224 [3]; 231: 10.7

SMILES: Cn1cc(S(=O)(=O)N2CCOCC2)cc1C(=O)NC(=O)CCl [compound 11]
isoTOP-ABPP ratio, cysteine Q15149_C4574 ([4]; 100 μM in situ 231): 1.1
isoTOP-ABPP ratio P68366_C54 ([2]; 100 μM in situ 231): 0.3
isoTOP-ABPP ratio, cysteine Q07065_C100 ([6]; 100 μM in situ 231): 1.0

SMILES: O=C(CCl)NC(=O)NC12CC3CC(CC(C3)C1)C2 [compound 12]
isoTOP-ABPP ratio, cysteine Q07065_C100 ([6]; 200 μM, insitu, 231): 20.0

SMILES: O=C(CCl)NCCc1c[nH]c2ccccc12 [compound 13]
isoTOP-ABPP ratio, cysteine Q15149_C4574 ([4]; 200 μM, insitu, 231): 1.4
isoTOP-ABPP ratio Q5T440_C170 ([1]; 200 μM, insitu, 231): 1.2
isoTOP-ABPP ratio P68366_C54 ([2]; 200 μM, insitu, ramos): 1.3
isoTOP-ABPP ratio, cysteine Q07065_C100 ([6]; 200 μM, insitu, 231): 1.6
isoTOP-ABPP ratio, cysteine P55265_C1224 [3]; 231: 1.9

SMILES: O=C(CCl)NC12CC3CC(CC(C3)C1)C2 [compound 21]
isoTOP-ABPP ratio, cysteine Q15149_C4574 ([4]; 200 μM, insitu, 231): 1.0
isoTOP-ABPP ratio Q5T440_C170 ([1]; 200 μM, insitu, 231): 1.6
isoTOP-ABPP ratio P68366_C54 ([2]; 200 μM, insitu, 231): 0.8
isoTOP-ABPP ratio, cysteine Q07065_C100 ([6]; 200 μM, insitu, 231): 2.2
isoTOP-ABPP ratio, cysteine P55265_C1224 [3]; 231: 2.2

SMILES: CC(C)CCOCCNC(=O)CCl [compound 27]
isoTOP-ABPP ratio Q15149_C4574 ([4]; 200 μM, insitu, 231): 1.3
isoTOP-ABPP ratio Q9NPH0_C267 ([5]; 200 μM, insitu, 231): 1.3
isoTOP-ABPP ratio P68366_C54 ([2]; 200 μM, insitu, 231): 0.3
isoTOP-ABPP ratio P55265_C1224 [3]; 231: 1.4

The remaining lines, values ahead:

isoTOP-ABPP ratio Q9NPH0_C267 ([5]; 200 μM, insitu, ramos): 2.1
isoTOP-ABPP ratio Q5T440_C170 ([1]; 200 μM, insitu, ramos): 1.3
isoTOP-ABPP ratio P68366_C54 ([2]; 200 μM, insitu, ramos): 1.0
isoTOP-ABPP ratio P55265_C1224 ([3]; ramos): 1.8
SMILES: O=C(CCl)N1CCN(CC(=O)N2CCOCC2)CC1 [compound 29]

isoTOP-ABPP ratio P68366_C54 ([2]; 200 μM, insitu, ramos): 1.1
SMILES: C=CC(=O)N(Cc1cccnc1)c1cc(C(F)(F)F)cc(C(F)(F)F)c1 [compound 31]

isoTOP-ABPP ratio P68366_C54 ([2]; 200 μM, insitu, 231): 2.0
SMILES: C=CC(=O)Nc1cc(F)c(N2CCN(C(=O)OC(C)(C)C)CC2)c(F)c1 [compound 38]

isoTOP-ABPP ratio Q15149_C4574 ([4]; 200 μM, insitu, 231): 0.9
isoTOP-ABPP ratio Q5T440_C170 ([1]; 200 μM, insitu, 231): 0.7
isoTOP-ABPP ratio Q07065_C100 ([6]; 200 μM, insitu, 231): 1.0
SMILES: Cc1ccc(C=C(C#N)C(=O)NCCN2CCOCC2)cc1 [compound 41]

isoTOP-ABPP ratio Q9NPH0_C267 ([5]; 200 μM, insitu, 231): 20.0
isoTOP-ABPP ratio Q5T440_C170 ([1]; 200 μM, insitu, 231): 3.5
isoTOP-ABPP ratio Q07065_C100 ([6]; 200 μM, insitu, 231): 20.0
isoTOP-ABPP ratio P55265_C1224 [3]; 231: 20.0
SMILES: CC1CCc2ccccc2N1C(=O)CCl (stereo not shown) [compound 45]

isoTOP-ABPP ratio P55265_C1224 [3]; 231: 1.3
SMILES: O=C(CCl)Nc1cccc2ncccc12 [compound 51]
